From patent US20250114416A1, “ANTIVIRAL C[…] EXTRACT AND STEROID COMPOUND AS ACTIVE INGREDIENTS” (priority 2022, published 2025)
Like-named read-outs stand apart in the source and are kept apart here.

What was measured:
Adenovirus type 5 [1] = format: cell-based; conditions: examples using ginseng (Table 1); Vero-E6 cells, 100 μg/ml pretreatment 2 h, 50 pfu/well, 72 h; non-treated control = 100
Adenovirus type 5 [2] = conditions: examples using ginseng (Table 1); lung tissue of K18-ACE2 TG mice, oral, three days after infection; non-treated control = 100

Structure (SMILES) | Relative virus titer Adenovirus type 5 (Adenovirus type 5 [1]) | Relative virus titer Adenovirus type 5 (Adenovirus type 5 [2])
C[C@@H]1C[C@H]2[C@@H]3CCC4=CC(=O)C=C[C@]4(C)[C@@]3(F)[C@@H](O)C[C@]2(C)[C@@]1(O)C(=O)CO [Comparative Example 4, Dexamethasone] | 102 ± 1.9 | 102 ± 1.9
C[C@]12CCC(=O)C=C1CC[C@@H]1[C@@H]2[C@@H](O)C[C@@]2(C)[C@H]1CC[C@]2(O)C(=O)CO [Comparative Example 5, Hydrocortisone] | 103 ± 1.9 | 101 ± 1.9
C[C@]12C=CC(=O)C=C1CC[C@@H]1[C@@H]2[C@@H](O)C[C@@]2(C)[C@H]1CC[C@]2(O)C(=O)CO [Comparative Example 6, Prednisolone] | 102 ± 1.9 | 102 ± 1.9
C[C@]12C=CC(=O)C=C1CC[C@H]1[C@@H]3C[C@@H](O)[C@](O)(C(=O)CO)[C@@]3(C)C[C@H](O)[C@@]12F [Comparative Example 7, Triamcinolone] | 102 ± 1.9 | 101 ± 1.9
